Earlier results in patent EP2322149A1, “Methods and compositions for the treatment of ischemia” (Universidad del Pais Vasco, priority 2009, dated 2011).

What was measured:
P2X1 = biological target: T1, P2X1 (Homo sapiens, UniProt P51575); conditions: read-out: IC50 P2X1; cited from earlier work
T1 sequence (P51575 1-399): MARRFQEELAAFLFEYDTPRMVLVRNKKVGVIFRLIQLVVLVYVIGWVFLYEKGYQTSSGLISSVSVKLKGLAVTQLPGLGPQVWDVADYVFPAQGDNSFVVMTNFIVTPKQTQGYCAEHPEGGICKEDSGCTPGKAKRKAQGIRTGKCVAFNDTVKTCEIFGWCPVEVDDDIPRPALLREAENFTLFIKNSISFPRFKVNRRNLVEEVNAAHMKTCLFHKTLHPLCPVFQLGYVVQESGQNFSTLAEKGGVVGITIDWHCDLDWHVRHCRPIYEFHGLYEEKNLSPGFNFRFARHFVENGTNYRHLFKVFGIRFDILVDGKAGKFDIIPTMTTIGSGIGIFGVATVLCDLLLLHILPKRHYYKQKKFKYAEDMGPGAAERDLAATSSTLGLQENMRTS

P2X4 = biological target: T2, P2X4 (Homo sapiens, UniProt Q99571); conditions: read-out: IC50 P2X4; cited from earlier work
T2 sequence (Q99571 1-388): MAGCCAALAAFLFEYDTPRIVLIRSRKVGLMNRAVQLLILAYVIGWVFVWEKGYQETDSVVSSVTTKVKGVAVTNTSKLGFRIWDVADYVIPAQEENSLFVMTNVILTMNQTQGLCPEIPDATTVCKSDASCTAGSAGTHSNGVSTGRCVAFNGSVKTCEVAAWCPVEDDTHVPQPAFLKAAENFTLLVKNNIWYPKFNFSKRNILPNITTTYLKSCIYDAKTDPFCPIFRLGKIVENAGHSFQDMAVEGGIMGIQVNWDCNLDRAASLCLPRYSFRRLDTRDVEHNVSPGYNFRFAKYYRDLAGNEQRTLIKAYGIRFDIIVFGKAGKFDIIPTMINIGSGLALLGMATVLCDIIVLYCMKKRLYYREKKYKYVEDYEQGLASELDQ

P2X6 = P2X6 (Homo sapiens, UniProt O15547); conditions: read-out: IC50 P2X6; cited from earlier work
P2X3 = biological target: T3, P2X3 (Homo sapiens, UniProt P56373); conditions: read-out: IC50 P2X3; cited from earlier work
T3 sequence (P56373 1-397): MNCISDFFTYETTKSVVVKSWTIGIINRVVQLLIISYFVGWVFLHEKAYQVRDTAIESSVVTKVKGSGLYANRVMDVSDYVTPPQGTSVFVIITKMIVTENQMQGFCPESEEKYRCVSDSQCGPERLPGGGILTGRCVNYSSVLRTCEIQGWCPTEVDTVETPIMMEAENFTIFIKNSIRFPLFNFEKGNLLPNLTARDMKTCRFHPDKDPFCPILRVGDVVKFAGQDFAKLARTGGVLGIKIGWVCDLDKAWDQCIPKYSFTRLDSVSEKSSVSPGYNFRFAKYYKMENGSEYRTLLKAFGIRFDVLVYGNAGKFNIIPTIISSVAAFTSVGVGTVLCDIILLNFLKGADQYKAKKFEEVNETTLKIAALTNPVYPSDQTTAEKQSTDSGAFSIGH

P2X5 = P2X5 (Homo sapiens, UniProt Q93086); conditions: cited from earlier work
P2X2 = biological target: T4, P2X2 (Homo sapiens, UniProt Q9UBL9); conditions: read-out: IC50 P2X2; cited from earlier work
T4 sequence (Q9UBL9 1-471): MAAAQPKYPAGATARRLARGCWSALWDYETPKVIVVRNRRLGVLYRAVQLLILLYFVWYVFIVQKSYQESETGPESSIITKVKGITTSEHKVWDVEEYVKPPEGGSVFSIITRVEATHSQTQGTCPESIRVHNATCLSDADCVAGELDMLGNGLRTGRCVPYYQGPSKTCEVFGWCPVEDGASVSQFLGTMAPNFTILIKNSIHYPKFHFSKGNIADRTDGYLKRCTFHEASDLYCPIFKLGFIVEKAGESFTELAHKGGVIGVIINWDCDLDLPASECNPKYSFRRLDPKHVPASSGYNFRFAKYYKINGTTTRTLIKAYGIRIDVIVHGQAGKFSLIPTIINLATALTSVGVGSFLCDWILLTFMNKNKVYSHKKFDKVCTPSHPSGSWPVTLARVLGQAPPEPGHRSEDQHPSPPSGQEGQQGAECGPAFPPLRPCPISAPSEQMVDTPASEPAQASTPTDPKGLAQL

P2X7 = biological target: T5, P2X7 (Homo sapiens, UniProt Q99572); conditions: cited from earlier work
T5 sequence (Q99572 1-595): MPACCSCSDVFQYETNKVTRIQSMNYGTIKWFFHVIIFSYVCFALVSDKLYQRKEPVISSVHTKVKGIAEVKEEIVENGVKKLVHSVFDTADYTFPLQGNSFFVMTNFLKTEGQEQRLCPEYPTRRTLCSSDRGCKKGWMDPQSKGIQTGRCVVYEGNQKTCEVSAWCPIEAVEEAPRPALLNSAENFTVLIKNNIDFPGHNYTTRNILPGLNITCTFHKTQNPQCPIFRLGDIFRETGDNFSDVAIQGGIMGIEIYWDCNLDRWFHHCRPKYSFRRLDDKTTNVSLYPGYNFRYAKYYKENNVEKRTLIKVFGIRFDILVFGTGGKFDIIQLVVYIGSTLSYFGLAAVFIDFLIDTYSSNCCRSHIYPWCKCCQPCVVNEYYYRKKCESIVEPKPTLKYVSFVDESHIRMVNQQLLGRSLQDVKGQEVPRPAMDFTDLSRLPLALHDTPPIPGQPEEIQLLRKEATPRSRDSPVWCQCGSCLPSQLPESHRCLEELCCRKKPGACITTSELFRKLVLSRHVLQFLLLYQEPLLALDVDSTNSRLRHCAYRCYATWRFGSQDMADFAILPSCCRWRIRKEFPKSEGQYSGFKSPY

Sequence of P2X6 (O15547 whole entry, species assumed): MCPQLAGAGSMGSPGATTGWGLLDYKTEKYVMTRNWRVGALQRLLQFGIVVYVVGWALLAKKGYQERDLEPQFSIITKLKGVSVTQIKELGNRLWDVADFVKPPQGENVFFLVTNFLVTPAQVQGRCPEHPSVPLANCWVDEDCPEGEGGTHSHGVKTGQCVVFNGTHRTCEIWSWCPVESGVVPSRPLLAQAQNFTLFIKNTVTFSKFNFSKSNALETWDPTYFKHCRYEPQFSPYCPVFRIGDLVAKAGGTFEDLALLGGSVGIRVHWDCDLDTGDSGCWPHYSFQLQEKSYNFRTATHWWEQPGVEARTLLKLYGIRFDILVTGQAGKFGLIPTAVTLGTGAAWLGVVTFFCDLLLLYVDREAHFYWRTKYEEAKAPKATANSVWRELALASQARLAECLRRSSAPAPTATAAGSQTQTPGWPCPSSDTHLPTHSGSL
Sequence of P2X5 (Q93086 whole entry, species assumed): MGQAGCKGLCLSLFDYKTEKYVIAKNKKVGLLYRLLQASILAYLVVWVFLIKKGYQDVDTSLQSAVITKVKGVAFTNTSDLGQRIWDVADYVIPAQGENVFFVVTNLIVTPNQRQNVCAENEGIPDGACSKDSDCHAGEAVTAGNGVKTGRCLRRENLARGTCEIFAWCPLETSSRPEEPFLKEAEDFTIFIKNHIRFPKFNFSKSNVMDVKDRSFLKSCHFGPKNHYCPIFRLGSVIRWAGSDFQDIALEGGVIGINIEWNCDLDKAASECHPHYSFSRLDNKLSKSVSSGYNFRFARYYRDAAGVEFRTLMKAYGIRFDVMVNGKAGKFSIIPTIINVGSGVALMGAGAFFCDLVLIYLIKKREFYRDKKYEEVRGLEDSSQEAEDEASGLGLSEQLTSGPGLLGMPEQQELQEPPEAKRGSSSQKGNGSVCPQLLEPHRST

Q: Which IC50 (P2X1) does the source give for Cc1cc(-c2ccc(/N=N/c3ccc4c(S(=O)(=O)O)cc(S(=O)(=O)O)c(N)c4c3O)c(C)c2)ccc1/N=N/c1ccc2c(S(=O)(=O)O)cc(S(=O)(=O)O)c(N)c2c1O [Evans Blue] here?
A: The IC50 was 1400 µM.

Q: And the IC50 (P2X4)?
A: Its IC50 is 1 to 400 µM.

Q: And the IC50 (P2X6)?
A: The IC50 was 1 to 400 µM.

Q: And the IC50 (P2X3)?
A: The IC50 was 1400 µM.

Q: And the IC50 (P2X5)?
A: The IC50 was 1 to 400 µM.

Q: What about the IC50 (P2X2) of the same molecule?
A: Its IC50 is 1 to 400 µM.

Q: What about the IC50 (P2X7) of the same molecule?
A: The IC50 was 1 to 400 µM.
